Counter-ions that a name gives are not always drawn.
These compounds were tested against T1, PARP-1 (Homo sapiens, UniProt P09874) (assay: PARP-1 inhibitory activity, HT universal colorimetric PARP assay kit (Trevigen)). Settings: estimation as calculated from a 4 point dose response curve; read-out: PARP-1 activity in vitro IC50.
T1 construct: purchased Trevigen
Format: biochemical
Description: The compounds were tested for PARP-1 inhibitory activity by using HT universal colorimetric PARP assay kit obtained from Trevigen, following manufacturer's protocol.

T1 sequence (P09874 whole entry): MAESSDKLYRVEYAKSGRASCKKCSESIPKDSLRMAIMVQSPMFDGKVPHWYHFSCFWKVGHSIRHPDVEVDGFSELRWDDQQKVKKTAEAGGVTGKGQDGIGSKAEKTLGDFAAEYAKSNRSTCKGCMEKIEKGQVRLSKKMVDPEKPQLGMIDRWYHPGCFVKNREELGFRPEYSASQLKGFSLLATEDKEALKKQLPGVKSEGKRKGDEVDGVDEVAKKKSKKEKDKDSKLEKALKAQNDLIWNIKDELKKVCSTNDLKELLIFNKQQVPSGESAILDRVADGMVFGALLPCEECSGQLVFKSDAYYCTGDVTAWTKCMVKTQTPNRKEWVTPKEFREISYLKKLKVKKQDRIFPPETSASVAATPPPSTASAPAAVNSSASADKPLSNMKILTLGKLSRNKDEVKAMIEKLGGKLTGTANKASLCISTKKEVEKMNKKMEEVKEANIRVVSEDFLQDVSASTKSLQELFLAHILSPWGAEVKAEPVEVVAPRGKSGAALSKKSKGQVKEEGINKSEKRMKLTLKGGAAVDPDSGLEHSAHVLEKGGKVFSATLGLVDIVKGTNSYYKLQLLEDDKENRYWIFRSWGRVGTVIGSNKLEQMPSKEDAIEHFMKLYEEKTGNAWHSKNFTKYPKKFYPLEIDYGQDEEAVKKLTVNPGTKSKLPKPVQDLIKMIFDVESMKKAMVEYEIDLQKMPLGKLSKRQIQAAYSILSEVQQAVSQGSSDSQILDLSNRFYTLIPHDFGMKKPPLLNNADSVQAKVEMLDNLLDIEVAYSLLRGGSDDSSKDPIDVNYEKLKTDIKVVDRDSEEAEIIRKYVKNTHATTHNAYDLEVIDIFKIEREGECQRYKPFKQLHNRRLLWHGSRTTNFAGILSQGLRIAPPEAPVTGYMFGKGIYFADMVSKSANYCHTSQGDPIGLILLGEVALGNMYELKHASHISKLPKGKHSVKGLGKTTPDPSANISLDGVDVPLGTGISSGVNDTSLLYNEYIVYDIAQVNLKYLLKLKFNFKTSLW

First: O=C(c1cc(Cc2n[nH]c(=O)c3ccccc23)ccc1F)N1CC2C(=O)N(Cc3ccccc3)C(=O)C2C1 (stereo not shown) [Compound 2, 2-benzyl-5-(2-fluoro-5-((4-oxo-3,4-dihydrophthalazin-1-yl)methyl)benzoyl) tetrahydropyrrolo[3,4-c]pyrrole-1,3(2H,3aH)-dione]
Second: O=C1C[C@@H]2CN(C(=O)c3cc(Cc4n[nH]c(=O)c5ccccc45)ccc3F)C[C@@H]2C1 [Compound 39, 4-(4-fluoro-3-((3 aR,6aS)-5-oxooctahydrocyclopenta[c]pyrrole-2-carbonyl)benzyl) phthalazin-1 (2H)-one]
The IC50 of the first is 6.5-fold lower: 8.41 nM for the first, 54.5 nM for the second. The first is the more potent here.

Compared with CCn1cc2c(n1)CN(C(=O)c1cc(Cc3n[nH]c(=O)c4ccccc34)ccc1F)C2 [Compound 41, 4-(3-(2-ethyl-2,4,5,6-tetrahydropyrrolo[3,4-c]pyrazole-5-carbonyl)-4-fluorobenzyl) phthalazin-1 (2H)-one], Cn1ncc2c1CN(C(=O)c1cc(Cc3n[nH]c(=O)c4ccccc34)ccc1F)C2 [Compound 54, 4-(4-fluoro-3-(1-methyl-1,4,5,6-tetrahydropyrrolo[3,4-c]pyrazole-5-carbonyl)benzyl) phthalazin-1 (2H)-one benzenesulfonate] is 1.7-fold higher in IC50: 8.9 nM for the first, 15.4 nM for the second. The first is the more potent here.

Going from COc1cccc(CN2CC3CN(C(=O)c4cc(Cc5n[nH]c(=O)c6ccccc56)ccc4F)CC3C2)n1 (stereo not shown) [Compound 26] to O=C1NC(=O)C2CN(C(=O)c3cc(Cc4n[nH]c(=O)c5ccccc45)ccc3F)CC12 (stereo not shown) [Compound 22, 5-(2-fluoro-5-((4-oxo-3,4-dihydrophthalazin-1-yl)methyl)benzoyl)tetrahydropyrrolo[3,4-c]pyrrole-1,3(2H,3aH)-dione], the IC50 falls from 36 nM to 20.2 nM (1.8-fold). The second is the more potent here.

CC(C)n1ncc2c1CN(C(=O)c1cc(Cc3n[nH]c(=O)c4ccccc34)ccc1F)C2 [Compound 43, 4-(4-fluoro-3-(1-isopropyl-1,4,5,6-tetrahydropyrrolo[3,4-c]pyrazole-5-carbonyl)benzyl)phthalazin-1 (2H)-one] and O=C(NC1C[C@@H]2CN(C(=O)c3cc(Cc4n[nH]c(=O)c5ccccc45)ccc3F)C[C@@H]2C1)C1CC1 (stereo partly drawn) [Compound 48, N-((3 aR,6aS)-2-(2-fluoro-5-((4-oxo-3,4-dihydrophthalazin-1-yl)methyl)benzoyl)octahydrocyclopenta[c]pyrrol-5-yl)cyclopropanecarboxamide] are within 1.5-fold of each other in IC50: 55.1 nM for the first, 74.5 nM for the second.

CCn1ncc2c1CN(C(=O)c1cc(Cc3n[nH]c(=O)c4ccccc34)ccc1F)C2 [Compound 42, 4-(3-(1-ethyl-1,4,5,6-tetrahydropyrrolo[3,4-c]pyrazole-5-carbonyl)-4-fluorobenzyl) phthalazin-1 (2H)-one] and O=C(c1cc(Cc2n[nH]c(=O)c3ccccc23)ccc1F)N1CC2CCCC2C1 (stereo not shown) [Compound 23, 4-(4-fluoro-3-(octahydrocyclopenta[c]pyrrole-2-carbonyl)benzyl)phthalazin-1(2H)-one] are within 1.5-fold of each other in IC50: 48.6 nM for the first, 67.8 nM for the second.

Going from O=C(c1cc(Cc2n[nH]c(=O)c3ccccc23)ccc1F)N1CC2CN(C(F)F)CC2C1 (stereo not shown) [Compound 38, 4-(3-(5-(difluoromethyl)octahydropyrrolo[3,4-c]pyrrole-2-carbonyl)-4-fluorobenzyl) phthalazin-1 (2H)-one] to O=C(c1cc(Cc2n[nH]c(=O)c3ccccc23)ccc1F)N1CC2CN(CC(F)(F)F)CC2C1 (stereo not shown) [Compound 7, 4-(4-fluoro-3-(5-(2,2,2-trifluoroethyl)octahydropyrrolo[3,4-c]pyrrole-2-carbonyl)benzyl)phthalazin-1 (2H)-one], the IC50 falls from 91 nM to 38.6 nM (2.4-fold). The second is the more potent here.

O=C(c1cc(Cc2n[nH]c(=O)c3ccccc23)ccc1F)N1CC2CN(Cc3ccc(F)cc3)CC2C1 (stereo not shown) [Compound 24, 4-(4-fluoro-3-(5-(4-fluorobenzyl)octahydropyrrolo[3,4-c]pyrrole-2-carbonyl)benzyl) phthalazin-1 (2H)-one] and CC(C)n1cc2c(n1)CN(C(=O)c1cc(Cc3n[nH]c(=O)c4ccccc34)ccc1F)C2 [Compound 45, 4-(4-fluoro-3-(2-isopropyl-2,4,5,6-tetrahydropyrrolo[3,4-c]pyrazole-5-carbonyl)benzyl) phthalazin-1(2H)-one] are within 1.5-fold of each other in IC50: 9.85 nM for the first, 13.8 nM for the second.

Going from O=C(c1cc(Cc2n[nH]c(=O)c3ccccc23)ccc1F)N1CC2CN(c3ccccc3)CC2C1 (stereo not shown) [Compound 32, 4-(4-fluoro-3-(5-phenyloctahydropyrrolo[3,4-c]pyrrole-2-carbonyl)benzyl)phthalazin-1(2H)-one] to O=C(c1cc(Cc2n[nH]c(=O)c3ccccc23)ccc1F)N1C[C@@H]2CC(F)(F)C[C@@H]2C1 [Compound 46, 4-(3-((3 aR,6aS)-5,5-difluorooctahydrocyclopenta[c]pyrrole-2-carbonyl)-4-fluorobenzyl)phthalazin-1(2H)-one], the IC50 rises from 11.5 nM to 27.8 nM (2.4-fold).

“Mixture of (1 & 2 isopropyl) 4-(4-fluoro-3-(1,4,5,6-tetrahydropyrrolo[3,4-c]pyrazole-5-carbonyl)benzyl)phthalazin-1(2H)-one [Compound 44]” and O=C(c1cc(Cc2n[nH]c(=O)c3ccccc23)ccc1F)N1Cc2cnn(C(=O)C3CC3)c2C1 [Compound 12, 4-(3-(1-(cyclopropanecarbonyl)-1,4,5,6-tetrahydropyrrolo[3,4-c]pyrazole-5-carbonyl)-4-fluorobenzyl)phthalazin-1(2H)-one] are within 1.5-fold of each other in IC50: 19.9 nM for the first, 14.1 nM for the second.

O=C(c1cc(Cc2n[nH]c(=O)c3ccccc23)ccc1F)N1CC2=C(C1)CS(=O)(=O)C2 [Compound 29, 4-(3-(2,2-dioxido-3,4,5,6-tetrahydro-1H-thieno[3,4-c]pyrrole-5-carbonyl)-4-fluorobenzyl)phthalazin-1(2H)-one] and O=C(c1cc(Cc2n[nH]c(=O)c3ccccc23)ccc1F)N1CC2=C(CNC2)C1 [Compound 31, 4-(4-fluoro-3-(1,2,3,4,5,6-hexahydropyrrolo[3,4-c]pyrrole-2-carbonyl)benzyl) phthalazin-1(2H)-one] are within 1.5-fold of each other in IC50: 18.4 nM for the first, 24.2 nM for the second.

First: Mixture of 1 & 2 Ethyl 4-(3-(2,4,5,6-tetrahydropyrrolo[3,4-c]pyrazole-5-carbonyl)-4-fluorobenzyl)phthalazin-1(2H)-one [Compound 40]
Second: O=C(c1cc(Cc2n[nH]c(=O)c3ccccc23)ccc1F)N1CC2CN(Cc3ccccc3F)CC2C1 (stereo not shown) [Compound 25, 4-(4-fluoro-3-(5-(2-fluorobenzyl)octahydropyrrolo[3,4-c]pyrrole-2-carbonyl)benzyl) phthalazin-1(2H)-one]
The IC50 of the first is 2.8-fold lower: 9.9 nM for the first, 27.8 nM for the second. The first is the more potent here.

O=C(c1cc(Cc2n[nH]c(=O)c3ccccc23)ccc1F)N1CC2CNCC2C1 (stereo not shown) [Compound 15, 4-(4-fluoro-3-(octahydropyrrolo[3,4-c]pyrrole-2-carbonyl)benzyl)phthalazin-1(2H)-one] and CN1C(=O)C2CN(C(=O)c3cc(Cc4n[nH]c(=O)c5ccccc45)ccc3F)CC2C1=O (stereo not shown) [Compound 27, 5-(2-fluoro-5-((4-oxo-3,4-dihydrophthalazin-1-yl)methyl)benzoyl)-2-methyl tetrahydropyrrolo[3,4-c]pyrrole-1,3(2H,3aH)-dione] are within 1.5-fold of each other in IC50: 11.6 nM for the first, 12.5 nM for the second.

Going from O=C(c1cc(Cc2n[nH]c(=O)c3ccccc23)ccc1F)N1Cc2cscc2C1 [Compound 30, 4-(3-(5,6-dihydro-4H-thieno[3,4-c]pyrrole-5-carbonyl)-4-fluorobenzyl)phthalazin-1(2H)-one] to O=C(c1cc(Cc2n[nH]c(=O)c3ccccc23)ccc1F)N1CC2COCC2C1 (stereo not shown) [Compound 14, 4-(4-fluoro-3-(hexahydro-1H-furo[3,4-c]pyrrole-5-carbonyl)benzyl)phthalazin-1 (2H)-one], the IC50 rises from 9.87 nM to 46.5 nM (4.7-fold). The first is the more potent here.

Compared with O=C(c1cc(Cc2n[nH]c(=O)c3ccccc23)ccc1F)N1CC2CN(Cc3ccc(F)cc3F)CC2C1 (stereo not shown) [Compound 19, 4-(3-(5-(2,4-difluorobenzyl)octahydropyrrolo[3,4-c]pyrrole-2-carbonyl)-4-fluorobenzyl)phthalazin-1(2H)-one], CC(C)n1cc2c(n1)CN(C(=O)c1cc(Cc3n[nH]c(=O)c4ccccc34)ccc1F)C2 [Compound 55, 5-(2-fluoro-5-((4-oxo-3,4-dihydrophthalazin-1-yl)methyl)benzoyl)-2-isopropyl-2,4,5,6-tetrahydropyrrolo[3,4-c]pyrazol-2-ium hydrogensulfate] is 2.6-fold lower in IC50: 34.4 nM for the first, 13.2 nM for the second. The second is the more potent here.

Going from COCCN1CC2CN(C(=O)c3cc(Cc4n[nH]c(=O)c5ccccc45)ccc3F)CC2C1 (stereo not shown) [Compound 47, 4-(4-fluoro-3-(5-(2-methoxyethyl)octahydropyrrolo[3,4-c]pyrrole-2-carbonyl)benzyl) phthalazin-1 (2H)-one] to CN1CC2=C(C1)CN(C(=O)c1cc(Cc3n[nH]c(=O)c4ccccc34)ccc1F)C2 [Compound 33, 4-(4-fluoro-3-(5-methyl-1,2,3,4,5,6-hexahydropyrrolo[3,4-c]pyrrole-2-carbonyl)benzyl) phthalazin-1 (2H)-one], the IC50 falls from 48.3 nM to 28.5 nM (1.7-fold). The second is the more potent here.

First: O=C(c1cc(Cc2n[nH]c(=O)c3ccccc23)ccc1F)N1CC2CN(CC3CC3)CC2C1 (stereo not shown) [Compound 6, 4-(3-(5-(cyclopropylmethyl)octahydropyrrolo[3,4-c]pyrrole-2-carbonyl)-4-fluorobenzyl)phthalazin-1(2H)-one]
Second: O=C(c1cc(Cc2n[nH]c(=O)c3ccccc23)ccc1F)N1CC2CN(Cc3ccccc3)CC2C1 (single isomer, unassigned) [Compound 9, 4-(3-(5-benzyloctahydropyrrolo[3,4-c]pyrrole-2-carbonyl)-4-fluorobenzyl)phthalazin-1(2H)-one hydrochloride]
The IC50 of the first is 1.9-fold higher: 46.7 nM for the first, 24 nM for the second.

First: CS(=O)(=O)N1CC2CN(C(=O)c3cc(Cc4n[nH]c(=O)c5ccccc45)ccc3F)CC2C1 (stereo not shown) [Compound 16, 4-(4-fluoro-3-(5-(methylsulfonyl)octahydropyrrolo[3,4-c]pyrrole-2-carbonyl)benzyl) phthalazin-1 (2H)-one]
Second: Mixture of 4-(4-fluoro-3-(1-methyl-1,4,5,6-tetrahydropyrrolo[3,4-c]pyrazole-5-carbonyl)benzyl)phthalazin-1(2H)-one compound with 4-(4-fluoro-3-(2-methyl-2,4,5,6-tetrahydropyrrolo[3,4-c]pyrazole-5-carbonyl)benzyl)phthalazin-1(2H)-one (1:3) [Compound 28]
The IC50 of the first is 5-fold higher: 104 nM for the first, 20.7 nM for the second. The second is the more potent here.

Source: US9598418B2, “Substituted phthalazin-1 (2H)-one derivatives as selective inhibitors of poly (ADP-ribose) polymerase-1” (CADILA HEALTHCARE LIMITED, priority 2012, dated 2017)
